# Measurements from ChEMBL document CHEMBL1201862, “PubChem BioAssay data set” (2004).
#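 Each compound was tested at five concentrations against cells in 96-well plates for 48 hours. Abbreviation: GI50, concentration required for 50% inhibition of growth.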 Active and inactive are the calls of the source. Rule as the data show it: active = GI50 up to about 1.1 µM and inactive = higher.
# What was measured:
# Test in all cases: DTP human tumour cell line panel, 48 h
# HCC 2998 = tested on: HCC 2998
# SNB-75 = tested on: SNB-75
# NCI/ADR-RES = tested on: NCI/ADR-RES
# OVCAR-5 = tested on: OVCAR-5
# TK-10 = tested on: TK-10
# 786-0 = tested on: 786-0
# IGROV-1 = tested on: IGROV-1
# KM12 = tested on: KM12
# UACC-257 = tested on: UACC-257
# K562 = tested on: K562
# SN12C = tested on: SN12C
# NCI-H226 = tested on: NCI-H226
# HCT-116 = tested on: HCT-116
# U-251 = tested on: U-251
# SF-539 = tested on: SF-539
# Hs-578T = tested on: Hs-578T
# HT-29 = tested on: HT-29
# Malme-3M = tested on: Malme-3M
# MDA-MB-435 = tested on: MDA-MB-435
# COLO 205 = tested on: COLO 205
Compound,GI50 (HCC 2998),GI50 (SNB-75),GI50 (NCI/ADR-RES),GI50 (OVCAR-5),GI50 (TK-10),GI50 (786-0),GI50 (IGROV-1),GI50 (KM12),GI50 (UACC-257),GI50 (K562),GI50 (SN12C),GI50 (NCI-H226),GI50 (HCT-116),GI50 (U-251),GI50 (SF-539),GI50 (Hs-578T),GI50 (HT-29),GI50 (Malme-3M),GI50 (MDA-MB-435),GI50 (COLO 205)
CCN(CC)CCN1C(=O)c2c(c(-c3ccccc3)c3ccccc3c2-c2ccccc2)C1=O,> 100 µM (inactive),> 100 µM (inactive),> 100 µM (inactive),> 100 µM (inactive),> 100 µM (inactive),37.6 µM (inactive),> 100 µM (inactive),> 100 µM (inactive),> 100 µM (inactive),> 100 µM (inactive),> 100 µM (inactive),> 100 µM (inactive),> 100 µM (inactive),81.7 µM (inactive),54.1 µM (inactive),> 100 µM (inactive),> 100 µM (inactive),> 100 µM (inactive),> 100 µM (inactive),> 100 µM (inactive)
CC(C)Cn1cnc2c(NCC(C)O)nc3ccccc3c21 (stereo not given),> 100 µM (inactive),56.1 µM (inactive),> 100 µM (inactive),> 100 µM (inactive),91.4 µM (inactive),> 100 µM (inactive),36.8 µM (inactive),> 100 µM (inactive),> 100 µM (inactive),61.4 µM (inactive),> 100 µM (inactive),> 100 µM (inactive),42.5 µM (inactive),> 100 µM (inactive),> 100 µM (inactive),45.7 µM (inactive),36.6 µM (inactive),74.3 µM (inactive),> 100 µM (inactive),51.1 µM (inactive)
COc1ccc(N/N=C2\C3=C(CCC(C)(C)O3)C(=O)c3ccccc32)cc1,12.1 µM (inactive),19 µM (inactive),19.6 µM (inactive),19.4 µM (inactive),20.5 µM (inactive),18.3 µM (inactive),15.2 µM (inactive),13.4 µM (inactive),19.7 µM (inactive),15.9 µM (inactive),17.9 µM (inactive),52.6 µM (inactive),14.1 µM (inactive),19.2 µM (inactive),24.4 µM (inactive),19.1 µM (inactive),13.6 µM (inactive),20.9 µM (inactive),17.1 µM (inactive),22.9 µM (inactive)
CCOP(=O)(OCC)/C(C#N)=C/c1c[nH]c2ccccc12,> 100 µM (inactive),> 100 µM (inactive),53 µM (inactive),> 100 µM (inactive),> 100 µM (inactive),> 100 µM (inactive),> 100 µM (inactive),> 100 µM (inactive),> 100 µM (inactive),> 100 µM (inactive),> 100 µM (inactive),> 100 µM (inactive),> 100 µM (inactive),> 100 µM (inactive),> 100 µM (inactive),> 100 µM (inactive),> 100 µM (inactive),> 100 µM (inactive),> 100 µM (inactive),> 100 µM (inactive)
O=S1(=O)c2cnccc2N=C(NCc2ccccc2)N1c1ccccc1,67.1 µM (inactive),69.5 µM (inactive),68.1 µM (inactive),> 100 µM (inactive),30.1 µM (inactive),> 100 µM (inactive),55.1 µM (inactive),> 100 µM (inactive),> 100 µM (inactive),> 100 µM (inactive),71.9 µM (inactive),> 100 µM (inactive),73.8 µM (inactive),98.2 µM (inactive),> 100 µM (inactive),58.3 µM (inactive),81.1 µM (inactive),> 100 µM (inactive),92.3 µM (inactive),61.9 µM (inactive)
CC(C)COP(=O)(OCC(C)C)C(NS(=O)(=O)c1ccccc1)(C(F)(F)F)C(F)(F)F,5.13 µM (inactive),2.91 µM (inactive),4.13 µM (inactive),14.2 µM (inactive),3.68 µM (inactive),7.53 µM (inactive),4.41 µM (inactive),3.93 µM (inactive),4.24 µM (inactive),4.8 µM (inactive),3.22 µM (inactive),16.9 µM (inactive),5.24 µM (inactive),3.77 µM (inactive),8.34 µM (inactive),9.33 µM (inactive),4.44 µM (inactive),11.9 µM (inactive),4.45 µM (inactive),1.94 µM (inactive)
CCOC(=O)C(C)(C)Oc1ccc(Cl)cc1 [CLOFIBRATE],505 µM (inactive),229 µM (inactive),285 µM (inactive),446 µM (inactive),> 1000 µM (inactive),462 µM (inactive),461 µM (inactive),324 µM (inactive),177 µM (inactive),> 1000 µM (inactive),320 µM (inactive),188 µM (inactive),214 µM (inactive),> 1000 µM (inactive),366 µM (inactive),208 µM (inactive),159 µM (inactive),215 µM (inactive),601 µM (inactive),202 µM (inactive)
CC1(C)O[C@@H]2C[C@H]3[C@@H]4C[C@H](F)C5=CC(=O)C=C[C@]5(C)[C@@]4(F)[C@@H](O)C[C@]3(C)[C@]2(C(=O)CO)O1 [FLUOCINOLONE ACETONIDE],> 100 µM (inactive),> 100 µM (inactive),> 100 µM (inactive),> 100 µM (inactive),> 100 µM (inactive),> 100 µM (inactive),> 100 µM (inactive),> 100 µM (inactive),> 89.3 µM (inactive),> 100 µM (inactive),12 µM (inactive),> 85.1 µM (inactive),> 100 µM (inactive),> 100 µM (inactive),> 100 µM (inactive),> 100 µM (inactive),> 100 µM (inactive),> 100 µM (inactive),> 100 µM (inactive),> 100 µM (inactive)
CC(C)[C@]12O[C@H]1[C@@H]1O[C@@]13[C@@]1(C)CCC4=C(COC4=O)[C@@H]1C[C@@H]1O[C@@]13C2=O [TRIPTONIDE],0.029 µM (active),0.0108 µM (active),0.0386 µM (active),0.0317 µM (active),0.0261 µM (active),0.0248 µM (active),< 0.01 µM (active),0.824 µM (active),< 0.0164 µM (active),0.0128 µM (active),< 0.0172 µM (active),< 0.0193 µM (active),< 0.01 µM (active),0.101 µM (active),0.0171 µM (active),< 0.0158 µM (active),< 0.01 µM (active),0.0191 µM (active),0.0103 µM (active),< 0.0113 µM (active)
